According to patent US8449788B2, “Leather finishing compositions comprising dioxolane derivatives” (Rhodia Poliamida e Especialidades Ltda, priority 2009, dated 2013):
Read-outs that look alike come from different tables or passages of the source.

How the values were obtained:
[1] = cited from earlier work
[2] = test system: mouse; conditions: cited from earlier work
[3] = Solubilization of a dye-metal complex; format: physicochemical
Experimental: Solketal was tested to solubilize a dye-metal complex.

[4] = cited from earlier work; remark: listed apart in the source
[5] = cited from earlier work; remark: listed apart in the source

CC1(C)OCC(CO)O1 (stereo not drawn) [Solketal, 2,2-dimethyl-1,3-dioxolane-4-methanol]
Solubility in water at 20° C. [1]: miscible
LD50 (oral/mouse mg/kg) [2]: 7000 mg/kg
Performance as solvent for dye-metal complex [3]: good compared to diacetone alcohol and methoxy propanol, and less effective compared to ethyldiglycol, ethylglycol, butyldiglycol and butylglycol
Performance as solvent for dye-metal complex ([3]; listed as solketal): average
Acute oral toxicity [4]: 7.00
Reversion in slightly acid pH (biodegradability) [5]: may revert into acetone and glycerin
